Holding throughout (assay type): cell-based
Assay [1] deals with Propionibacterium acnes SW101T. In words: MIC by anaerobic broth microdilution (WCB, NCCLS). The note with it: code K: Propionibacterium acnes SW101T, 35-37° C., 48 h. Here is the method:
(§1) MIC values towards strains of propionibacteria were obtained by broth microdilution using WCB (Anaerobe Broth MIC, Difco) according to NCCLS guidelines (National Committee for Clinical Laboratory Standards. Methods for anti-microbial susceptibility testing of anaerobic bacteria, 5th ed.; approved standard. NCCLS publication no. M11-A5. NCCLS, Wayne, Pa., 2001). Microtitre plates were loaded into 7-L GENbox anaerobic incubation jars (BioMérieux, cat. no. 96 128) fitted with anaerobic atmosphere generators (BioMérieux, cat. no. 96 124) and a Dry Anaerobic Indicator Strip (BBL, cat. no. 271051). Under these conditions, an O2 concentration <0.1% was achieved by 2.5 h, and a CO2 concentration >15% by 24 h. MIC values were read after incubation at 35-37° C. for 48 h (Table 3).

The subject of assay [2] is Propionibacterium acnes EG7NS. In words: MIC by anaerobic broth microdilution (WCB, NCCLS). Particulars: code I: Propionibacterium acnes EG7NS, anaerobic, 35-37° C., 48 h. Here is the method:
as §1

Assay [3] concerns Staphylococcus aureus 1086. Kind of assay: MIC by broth microdilution (CAMHB, NCCLS). Particulars: code B: Staphylococcus aureus 1086. Here is the method:
(§2) MIC values for non-anaerobes were obtained by broth microdilution using CAMHB (BBL) according to NCCLS guidelines (National Committee for Clinical Laboratory Standards. Methods for dilution antimicrobial susceptibility tests for bacteria that grow aerobically, 5th ed. Approved standard M7-A6. NCCLS, Wayne, Pa., 2003). Drugs were dissolved in DMSO prior to dispensing into 96-well microtitre plates; the concentration of DMSO in assay wells never exceeded 2% (v/v). CAMHB was supplemented with 5% (v/v) horse serum (Sigma, cat. no. H-1270) in lieu of laked horse blood for cultivation of Streptococcus pneumoniae, and with 5% (v/v) Fildes enrichment (BBL, cat. no. 220810) supernate in lieu of Haemophilus Test Medium and additives for cultivation of Haemophilus influenzae (Pankuch G A, Hoellman D B, Lin G, Bajaksouzian S, Jacobs M R, Appelbaum P C. Activity of HMR 3647 compared to those of five agents against Haemophilus influenzae and Moraxella catarrhalis by MIC determination and time-kill assay. Antimicrob. Agents Chemother. November 1998; 42(11): 3032-4). Activities expressed as the minimal inhibitory concentrations (MICs) (μg/ml) are given in the following Table 3, and the microorganisms used for testing are listed in Table 2 below.

Assay [4] has as its system Escherichia coli ATCC 25922. In words: MIC by broth microdilution (CAMHB, NCCLS). Particulars: code C: Escherichia coli ATCC 25922. Here is the method: as §2
Assay [5] has as its system Staphylococcus aureus ATCC 29213. In words: MIC by broth microdilution (CAMHB, NCCLS). The note with it: code A: Staphylococcus aureus ATCC 29213. The protocol: as §2
The subject of assay [6] is Streptococcus pneumoniae 1/1. Kind of assay: MIC by broth microdilution (CAMHB + 5% horse serum, NCCLS). The note with it: code D: Streptococcus pneumoniae 1/1. The protocol: as §2
In assay [7] the test system is Streptococcus pneumoniae SL199T. Described as above. Particulars: code E: Streptococcus pneumoniae SL199T. The protocol: as §2
The test system of assay [8] is Streptococcus pneumoniae Tupelo. The assay is described as above. The note with it: code F: Streptococcus pneumoniae Tupelo. Here is the method: as §2
In assay [9] the test system is Haemophilus influenzae 12214. Kind of assay: MIC by broth microdilution (CAMHB + 5% Fildes enrichment, NCCLS). The note with it: code G: Haemophilus influenzae 12214. The protocol: as §2
Assay [10] concerns Haemophilus influenzae QK50. The description is as above. The note with it: code H: Haemophilus influenzae QK50. Here is the method: as §2
Where [11] appears, read: Cutibacterium acnes, read-out: MIC.

SMILES strings stand for the structures. ≈ marks a conversion by molar mass, not a printed value. Read-outs that look alike come from different tables or passages of the source.

Regarding `CCC[C@@H]1C[C@@H](C(=O)N[C@@H]([C@H]2O[C@H](SC)[C@H](O)[C@@H](O)[C@H]2O)[C@H](C)Cl)N(C)C1` [Clindamycin, reference compound], the MIC in [1] (setting [11]) is above 32 µg/mL; in [2] (setting [11]), at most 0.06 µg/mL.
As to `CC[C@H]1OC(=O)[C@H](C)[C@@H](O[C@H]2C[C@@](C)(OC)[C@@H](O)[C@H](C)O2)[C@H](C)[C@@H](O[C@@H]2O[C@H](C)C[C@H](N(C)C)[C@H]2O)[C@](C)(OC)C[C@@H](C)C(=O)[C@H](C)[C@H]2[C@H](SCCOCn3cnc4cccnc43)C(=O)O[C@@]21C` [Example 2], the MIC in [3] was 8 µg/mL (≈ 8.17 µM); in assay [4], above 32 µg/mL; in assay [5], 2 µg/mL (≈ 2.04 µM); in assay [1] it was 16 µg/mL (≈ 16.3 µM); in assay [2] it was “<=0.06 μg/ml”; in assay [6], “<=0.06 μg/ml”. Also, the MIC in [7] was 0.5 µg/mL; in assay [8], 0.5 µg/mL; in assay [9], 4 µg/mL; in assay [10], 8 µg/mL.
As to `CC[C@H]1OC(=O)[C@H](C)[C@@H](O[C@H]2C[C@@](C)(OC)[C@@H](O)[C@H](C)O2)[C@H](C)[C@@H](O[C@@H]2O[C@H](C)C[C@H](N(C)C)[C@H]2O)[C@](C)(OC)C[C@@H](C)C(=O)[C@H](C)[C@H]2[C@H](SCCCc3ccc4ncccc4c3)C(=O)O[C@@]21C` [Example 3], the MIC in assay [3] is 8 µg/mL (≈ 8.22 µM); in [4] it was above 32 µg/mL; in [5], 4 µg/mL (≈ 4.11 µM); in assay [1] it was 16 µg/mL (≈ 16.4 µM); in assay [2] it was 0.25 µg/mL (≈ 0.257 µM); in assay [6], 0.25 µg/mL. In addition, the MIC in assay [7] is 2 µg/mL; in assay [8], 8 µg/mL; in assay [9], above 32 µg/mL; in [10], 16 µg/mL.
As for `CC[C@H]1OC(=O)[C@H](C)[C@@H](O[C@H]2C[C@@](C)(OC)[C@@H](O)[C@H](C)O2)[C@H](C)[C@@H](O[C@@H]2O[C@H](C)C[C@H](N(C)C)[C@H]2O)[C@](C)(OC)C[C@@H](C)C(=O)[C@H](C)[C@H]2[C@H](SCCCN3C(=O)c4cccnc4C3=O)C(=O)O[C@@]21C` [Example 5], the MIC was above 32 µg/mL in [3]; above 32 µg/mL in [4]; 2 µg/mL (≈ 2.02 µM) in [5]; 16 µg/mL (≈ 16.1 µM) in assay [1]; “<=0.06 μg/ml” in [2]; “<=0.06 μg/ml” in assay [6]. Also, the MIC in assay [7] turned out to be 8 µg/mL; in assay [8] it was 16 µg/mL; in [9], 8 µg/mL; in [10], 8 µg/mL.
In the case of `CC[C@H]1OC(=O)[C@H](C)[C@@H](O[C@H]2C[C@@](C)(OC)[C@@H](O)[C@H](C)O2)[C@H](C)[C@@H](O[C@@H]2O[C@H](C)C[C@H](N(C)C)[C@H]2O)[C@](C)(OC)C[C@@H](C)C(=O)[C@H](C)[C@H]2[C@H](SCC(=O)NCc3ccccn3)C(=O)O[C@@]21C` [Example 6], the MIC in assay [3] was above 32 µg/mL; in assay [4], “>=32 μg/ml”; in [5], 0.5 µg/mL (≈ 0.525 µM); in [1], above 32 µg/mL; in assay [2] it was “<=0.06 μg/ml”; in assay [6], “<=0.06 μg/ml”. Also, the MIC in assay [7] is 1 µg/mL; in assay [8] it was 2 µg/mL; in assay [9], 2 µg/mL; in assay [10], 2 µg/mL.
Consider `CC[C@H]1OC(=O)[C@H](C)[C@@H](O[C@H]2C[C@@](C)(OC)[C@@H](O)[C@H](C)O2)[C@H](C)[C@@H](O[C@@H]2O[C@H](C)C[C@H](N(C)C)[C@H]2O)[C@](C)(OC)C[C@@H](C)C(=O)[C@H](C)[C@H]2[C@H](S(=O)(=O)CCn3cnc4c(N)ncnc43)C(=O)O[C@@]21C` [Example 7], for which the MIC in assay [3] was above 32 µg/mL; in assay [4], above 32 µg/mL; in assay [5] it was 32 µg/mL (≈ 32.1 µM); in assay [1] it was 8 µg/mL (≈ 8.02 µM); in assay [2], 2 µg/mL (≈ 2.01 µM); in assay [6], 2 µg/mL. In addition, the MIC in [7] is 4 µg/mL; in assay [8], 16 µg/mL; in assay [9] it was above 32 µg/mL; in [10], above 32 µg/mL.
As for `CC[C@H]1OC(=O)[C@H](C)[C@@H](O[C@H]2C[C@@](C)(OC)[C@@H](O)[C@H](C)O2)[C@H](C)[C@@H](O[C@@H]2O[C@H](C)C[C@H](N(C)C)[C@H]2O)[C@](C)(OC)C[C@@H](C)C(=O)[C@H](C)[C@H]2[C@H](SCCNc3ncnc4[nH]cnc34)C(=O)O[C@@]21C` [Example 9], the MIC in assay [3] is above 32 µg/mL; in [4], above 32 µg/mL; in [5] it was 4 µg/mL (≈ 4.14 µM); in [1], 4 µg/mL (≈ 4.14 µM); in [2], 0.125 µg/mL (≈ 0.13 µM); in [6], “<=0.06 μg/ml”. Besides, the MIC is 0.25 µg/mL in [7], 1 µg/mL in assay [8], 2 µg/mL in assay [9] and 2 µg/mL in [10].
`CC[C@H]1OC(=O)[C@H](C)[C@@H](O[C@H]2C[C@@](C)(OC)[C@@H](O)[C@H](C)O2)[C@H](C)[C@@H](O[C@@H]2O[C@H](C)C[C@H](N(C)C)[C@H]2O)[C@](C)(OC)C[C@@H](C)C(=O)[C@H](C)[C@H]2[C@H](SCCCn3cnc4cccnc43)C(=O)O[C@@]21C` [Example 12]: the MIC in assay [3] is 8 µg/mL (≈ 8.31 µM); in assay [4], above 32 µg/mL; in [5], 2 µg/mL (≈ 2.08 µM); in assay [1], 8 µg/mL (≈ 8.31 µM); in [2], “<=0.06 μg/ml”; in [6], “<=0.06 μg/ml”. The MIC in assay [7] turned out to be 0.5 µg/mL; in assay [8] it was 1 µg/mL; in assay [9], 4 µg/mL; in assay [10], 8 µg/mL.
Consider `CC[C@H]1OC(=O)[C@H](C)[C@@H](O[C@H]2C[C@@](C)(OC)[C@@H](O)[C@H](C)O2)[C@H](C)[C@@H](O[C@@H]2O[C@H](C)C[C@H](N(C)C)[C@H]2O)[C@](C)(OC)C[C@@H](C)C(=O)[C@H](C)[C@H]2[C@H](SCCn3ncc4c(N)ncnc43)C(=O)O[C@@]21C` [Example 13], for which the MIC in [3] was 16 µg/mL (≈ 16.6 µM); in assay [4], “>=32 μg/ml”; in assay [5] it was 2 µg/mL (≈ 2.07 µM); in assay [1] it was 2 µg/mL (≈ 2.07 µM); in assay [2], “<=0.06 μg/ml”; in [6] it was “<=0.06 μg/ml”. In addition, the MIC in [7] amounted to 0.125 µg/mL; in assay [8] it was 0.25 µg/mL; in assay [9] it was 4 µg/mL; in [10] it was 4 µg/mL.
On to `CC[C@H]1OC(=O)[C@H](C)[C@@H](O[C@H]2C[C@@](C)(OC)[C@@H](O)[C@H](C)O2)[C@H](C)[C@@H](O[C@@H]2O[C@H](C)C[C@H](N(C)C)[C@H]2O)[C@](C)(OC)C[C@@H](C)C(=O)[C@H](C)[C@H]2[C@H](SCCN(C)CCn3cnc4c(N)ncnc43)C(=O)O[C@@]21C` [Example 14], for which the MIC in assay [3] is 16 µg/mL (≈ 15.7 µM); in assay [4], above 32 µg/mL; in assay [5], 2 µg/mL (≈ 1.96 µM); in assay [1] it was 16 µg/mL (≈ 15.7 µM); in assay [2], “<=0.06 μg/ml”; in [6], “<=0.06 μg/ml”. Also, the MIC in [7] was 0.5 µg/mL; in assay [8], 1 µg/mL; in [9] it was 8 µg/mL; in assay [10] it was 8 µg/mL.
Consider `CN(C)[C@@H]1C(O)=C(C(N)=O)C(=O)[C@@]2(O)C(O)=C3C(=O)c4c(O)cccc4[C@@](C)(O)[C@H]3C[C@@H]12` [Tetracycline, reference compound], for which the MIC in assay [1] (setting [11]) was 32 µg/mL (≈ 72 µM); in [2] (setting [11]) it was at most 0.06 µg/mL.

Values taken from patent US7524823B2, “Macrolides” (Basilea Pharmaceutica AG, priority 2005, dated 2009).
